The source of these data is patent US20180252736A1, “CB2 RECEPTOR INTERNALIZATION” (Arena Pharmaceuticals, Inc., priority 2015, published 2018).

Usually EC50 stands for the concentration at which the effect is half-maximal. Higher therefore signals lower potency in that assay.

“And” between values parts separate entries of the source, which are not always exact repeats. Equal values may be shown once. Bounds are passed on as bounds.

Assay [1] concerns the target T1, rat CB2 receptor (Rattus norvegicus, UniProt Q9QZN9).
T1 sequence (Q9QZN9 1-360): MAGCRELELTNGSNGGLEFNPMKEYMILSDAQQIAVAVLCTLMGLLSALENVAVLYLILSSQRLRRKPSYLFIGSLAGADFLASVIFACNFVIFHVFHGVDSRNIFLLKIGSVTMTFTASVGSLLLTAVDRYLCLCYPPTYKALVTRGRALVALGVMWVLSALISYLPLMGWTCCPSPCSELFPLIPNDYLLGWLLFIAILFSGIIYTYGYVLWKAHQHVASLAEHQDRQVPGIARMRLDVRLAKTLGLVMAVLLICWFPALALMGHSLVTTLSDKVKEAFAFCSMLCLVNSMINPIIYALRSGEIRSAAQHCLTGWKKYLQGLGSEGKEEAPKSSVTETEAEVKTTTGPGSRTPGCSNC
Description: β-arrestin recruitment assay (PathHunter CHO-K1). Format: cell-based. On the set-up: host or cells: PathHunter CHO-K1. To be noted: for β-arrestin efficacy compared to CP55,940, rat CB2: relative to CP55,940. (In general: Activated receptors often draw arrestin, which recruitment assays turn into a signal.)

Assay [2] deals with T2, hCB2 (Homo sapiens, UniProt P34972). In words: CB2 receptor internalization assay (enzyme complementation). The assay is classed as cell-based. The settings on record: for receptor internalization, human CB2 (words): relative to CP55,940. Here is the method: (§1) Receptor internalization assays for the CB2 receptor were performed using the PathHunter® Total GPCR Internalization system from DiscoverRx (Fremont, Calif.). The assay was performed in CB2-receptor-expressing stable cell lines generated in the PathHunter® U2OS parental cell line.
(§2) Total GPCR internalization assays were performed per the manufacturer's instructions. Briefly, PathHunter® U2OS cells stably expressing the recombinant human or rat CB2 receptor were seeded into 96-well microtiter assay plates (Catalog #3610, Corning Inc., Corning, N.Y.) at a density of 20,000 cells per well in 100 μL growth medium and cultured in a humidified 37° C. incubator overnight. Growth medium was exchanged the following day for 100 μL serum-free medium (OptiMEM), and cells were incubated overnight in a humidified 37° C. incubator. On the day of the assay, test compounds dissolved in DMSO were serially diluted in DMSO and then further diluted in OptiMEM to achieve 11× concentrations in 5.5% DMSO. Aliquots (10 μL) of diluted test compounds were added to the assay plates, which were then incubated in a humidified 37° C. incubator for 3 hours. Lysis/detection reagents (55 μL total) were then added and the plates were incubated for an additional 1 hour at room temperature. Plates were then read on an appropriate plate reader (e.g., EnVision (Perkin Elmer, Waltham, Mass.) or PheraStar (BMG)). Dose-response curves were generated using a minimum of 8 different test concentrations and triplicate determinations were made at each test concentration. Assay performance was monitored by inclusion of a standard CB2 reference agonist such as CP55,940 and agonist internalization efficacies were reported relative to that of the reference agonist.

The target in assay [3] is T1, rat CB2 receptor. The assay is described as above. Format: cell-based. To be noted: relative to CP55,940. Here is the method: as §1, §2
Assay [4] deals with rat CB1 receptor (Rattus norvegicus, UniProt P20272). Description: β-arrestin recruitment assay (PathHunter CHO-K1). The assay is classed as cell-based.
The test system of assay [5] is human CB2 receptor versus human CB1 receptor. Description: CB2 receptor selectivity (ratio of EC50 values, β-arrestin data). The assay is classed as cell-based. The text has this: Competition curves were fit to a nonlinear least squares curve fitting program to obtain EC50 values for the β-arrestin data. Selectivity for the CB2 receptor versus the CB1 receptor was obtained by dividing the […].

The target in assay [6] is T3, mouse CB2 receptor (Mus musculus, UniProt P47936).
T3 construct: host or cells: PathHunter CHO-K1
Description: β-arrestin recruitment assay (PathHunter CHO-K1). Format: cell-based. To be noted: for β-arrestin efficacy, mouse CB2: relative to reference agonist.

In assay [7] the target is T2, hCB2. In words: β-arrestin recruitment assay (PathHunter CHO-K1). To be noted: for β-arrestin efficacy compared to CP55,940, human CB2: relative to CP55,940. Set-up: host or cells: PathHunter CHO-K1. Format: cell-based.
In assay [8] the target is T2, hCB2. To be noted: reported by Glenmark, cited from earlier work.
Assay [9] has as its target mouse CB1 receptor (Mus musculus, UniProt P47746). Description: β-arrestin recruitment assay (PathHunter CHO-K1). The assay is classed as cell-based.
The target in assay [10] is T4, CB1 (Homo sapiens, UniProt P21554). In words: β-arrestin recruitment assay (PathHunter CHO-K1). Format: cell-based.
In assay [11] the target is T2, hCB2. To be noted: reported by Lilly; cited from earlier work.
For assay [12], the target named is T4, CB1. To be noted: at 100,000 nM; reported by Lilly; cited from earlier work.
The subject of assay [13] is MIA-induced osteoarthritis in male Sprague Dawley rats. Description: Osteoarthritis pain model (MIA). Format: in vivo, rat. The settings on record: for effect of CB1 antagonist on in vivo efficacy: pain model. The text has this:
Injection of monosodium iodoacetate (MIA) into a joint (J Rheumatol 14:130-1, 1987) inhibits the activity of glyceraldehyde-3-phosphate dehydrogenase in chondrocytes, resulting in disruption of glycolysis and eventually in cell death. The progressive loss of chondrocytes results in histological and morphological changes of the articular cartilage, closely resembling those seen in osteoarthritis patients.
Osteoarthritis was induced in 200 g male Sprague Dawley rats. After brief anesthesia by isoflurane, rats received a single intra-articular injection of MIA (2 mg) (Catalog #19148, Sigma Aldrich, Saint Louis, Mo.) dissolved in 0.9% sterile saline in a 50 μL volume administered through the patella ligament into the joint space of the left knee with a 30 G needle. Following injection, animals were allowed to recover from anesthesia before being returned to the main housing vivarium.
Typically during disease progression, there is an inflammation period of 0-7 days post-intra-articular injection followed by progressive degeneration of the cartilage and subchondral bone from days 14-55. Efficacy studies with a compound described herein took place from day 14 onwards and were performed twice a week with at least three days of wash-out in between each assay. Three different assays can be used to measure pain. Tactile allodynia can be measured via von Frey assay, hind limb paw weight distribution can be monitored using an incapacitance tester (Columbus Instruments, Columbus, Ohio), and hind limb grip strength can be measured using a grip strength meter (Columbus Instruments, Columbus, Ohio). Briefly, the von Frey assay was performed using the standard up/down method with von Frey filaments. Hind paw weight distribution was determined by placing rats in a chamber so that each hind paw rested on a separate force plate of the incapacitance tester. The force exerted by each hind limb (measured in grams) was averaged over a three second period. Three measurements are taken for each rat, and the change in hind paw weight distribution was calculated. Peak hind limb grip force was conducted by recoding the maximum compressive force exerted on the hind limb mesh gauge set on the grip strength meter. During testing, each rat was restrained and the paw of the injected knee was allowed to grip the mesh. The animal was then pulled in an upward motion until their grip was broken. Each rat was tested three times, with the contralateral paw used as a control.
A baseline was established for animals prior to administration of compounds. The MIA-treated groups of rats were then dosed with either vehicle (PEG400, orally), test compound (at 3 mg/kg, 10 mg/kg, and 30 mg/kg, orally), or morphine (3 mg/kg, subcutaneously). The dosing volume was 500 μL. One hour after dosing, von Frey assay, hind limb weight distribution and/or hind limb grip analysis was performed to measure the efficacy of the test compounds.

The target of assay [14] is T4, CB1. To be noted: concentrations less than 30 μM; reported by GSK; cited from earlier work.

T2 sequence (P34972 whole entry): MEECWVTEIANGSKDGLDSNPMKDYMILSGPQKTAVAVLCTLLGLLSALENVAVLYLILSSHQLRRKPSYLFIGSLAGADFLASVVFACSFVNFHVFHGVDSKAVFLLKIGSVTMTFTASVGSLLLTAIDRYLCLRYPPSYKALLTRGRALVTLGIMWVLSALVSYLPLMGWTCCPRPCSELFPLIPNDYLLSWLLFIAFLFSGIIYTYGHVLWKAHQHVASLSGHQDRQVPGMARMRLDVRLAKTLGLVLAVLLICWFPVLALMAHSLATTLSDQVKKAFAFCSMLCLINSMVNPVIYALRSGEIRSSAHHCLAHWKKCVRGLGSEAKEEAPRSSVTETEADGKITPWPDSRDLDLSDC
Sequence of rat CB1 receptor (P20272 whole entry): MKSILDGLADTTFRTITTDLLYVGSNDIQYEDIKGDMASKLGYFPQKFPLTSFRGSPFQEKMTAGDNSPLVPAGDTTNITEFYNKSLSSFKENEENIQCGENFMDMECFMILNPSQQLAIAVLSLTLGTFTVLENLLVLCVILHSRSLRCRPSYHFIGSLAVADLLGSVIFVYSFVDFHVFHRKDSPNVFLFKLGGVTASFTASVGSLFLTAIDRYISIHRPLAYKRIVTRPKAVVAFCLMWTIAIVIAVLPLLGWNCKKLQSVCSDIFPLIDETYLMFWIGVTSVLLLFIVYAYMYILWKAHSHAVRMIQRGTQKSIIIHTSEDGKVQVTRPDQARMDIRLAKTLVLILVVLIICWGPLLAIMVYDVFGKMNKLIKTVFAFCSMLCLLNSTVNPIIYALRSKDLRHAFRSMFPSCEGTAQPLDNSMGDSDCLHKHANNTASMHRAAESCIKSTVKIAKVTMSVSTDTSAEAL
T3 sequence (P47936 whole entry): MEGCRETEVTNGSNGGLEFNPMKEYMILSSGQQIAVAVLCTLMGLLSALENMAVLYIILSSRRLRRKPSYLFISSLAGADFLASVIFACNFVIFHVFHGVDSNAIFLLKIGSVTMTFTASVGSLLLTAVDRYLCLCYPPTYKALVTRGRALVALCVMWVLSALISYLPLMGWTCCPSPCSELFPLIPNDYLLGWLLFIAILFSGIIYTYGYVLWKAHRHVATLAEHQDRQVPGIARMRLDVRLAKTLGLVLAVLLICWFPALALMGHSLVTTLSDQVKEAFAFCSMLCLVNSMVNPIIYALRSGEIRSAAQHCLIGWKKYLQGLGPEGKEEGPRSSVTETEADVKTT
T4 sequence (P21554 whole entry): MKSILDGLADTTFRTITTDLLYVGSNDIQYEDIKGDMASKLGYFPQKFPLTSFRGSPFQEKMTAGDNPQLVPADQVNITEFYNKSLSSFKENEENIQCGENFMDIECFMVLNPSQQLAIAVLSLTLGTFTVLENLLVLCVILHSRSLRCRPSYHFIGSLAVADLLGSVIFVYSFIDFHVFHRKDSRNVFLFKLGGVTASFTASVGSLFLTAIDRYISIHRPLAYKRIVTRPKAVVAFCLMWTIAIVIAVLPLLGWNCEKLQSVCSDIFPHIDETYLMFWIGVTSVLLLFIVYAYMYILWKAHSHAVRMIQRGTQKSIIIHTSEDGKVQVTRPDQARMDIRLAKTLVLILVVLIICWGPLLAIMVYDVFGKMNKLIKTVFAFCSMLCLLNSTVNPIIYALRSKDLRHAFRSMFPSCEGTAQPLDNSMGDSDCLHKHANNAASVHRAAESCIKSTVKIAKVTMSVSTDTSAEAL
Sequence of mouse CB1 receptor (P47746 whole entry): as the sequence (P20272 whole entry) above, with E95D counted along it

As to `CC(C)(C)NC(=O)c1nn(-c2ccc(F)cc2F)c2c1C1CCC2C1` (stereo not drawn) [GRC 10693], the EC50 came out at 2 nM in assay [1]; 290 nM in [4]; 0.8 nM in assay [6]; 1.2 nM in [7]; 750 nM in [9]; 384 nM in assay [10]. For the same compound, the “β-arrestin efficacy compared to CP55,940, rat CB2” value in assay [1] is 89%. Further, the “receptor internalization, human CB2 (words)” value in [2] is “high efficacy”. Also, in assay [3], the “receptor internalization, rat CB2” value is given as “high efficacy”. In [4] (relative to reference agonist), the “β-arrestin efficacy, rat CB1” value was 57%. In addition, the “selectivity for the human CB2 receptor versus the human CB1 receptor” value in assay [5] came out at 320 fold. The “β-arrestin efficacy, mouse CB2” value in assay [6] was 96%. In assay [7], the “β-arrestin efficacy compared to CP55,940, human CB2” value came to 100%. In [8], the “selectivity compared to the CB1 receptor using cAMP assays” value is recorded as “greater than 4700 fold”. Besides, in assay [8] (read-out: functional IC50 for the human CB2 receptor), the IC50 is 2.1 nM. Further, the “β-arrestin efficacy, mouse CB1” value in assay [9] (relative to reference agonist) stood at 75%. Moreover, the “β-arrestin efficacy, human CB1” value in assay [10] (relative to reference agonist) came to 57%.

Consider `Cc1nc(N2CCN(C)CC2)c2nc(-c3ccccc3Cl)n(C3CCOCC3)c2n1` [LY2828360], for which, in assay [1] (compared to CP55,940), the “agonist activity in β-arrestin assay, rat CB2” value is “absence of agonist activity”. Besides, the “GTPγS35 stimulation in vitro efficacy, hCB2” value in [11] was 87% and 87 ± 2%. Further, the IC50 in [6] (antagonist activity, read-out: β-arrestin potency, mouse CB2 (* indicates antagonist activity)) was 56 nM; in assay [9] (antagonist activity, read-out: β-arrestin potency, mouse CB1 (* indicates antagonist activity)), 1000 nM. Moreover, the “β-arrestin efficacy compared to CP55,940, human CB2” value in [7] came to 41%. The “GTPγS35 stimulation efficacy, hCB1” value in assay [12] is reported as 15 ± 7% at 100,000 nM.

As for `O=C(NCC1CCOCC1)c1cnc(Nc2ccc(Cl)cc2Cl)nc1C(F)(F)F` [GW842166X], the “in vivo efficacy over time in the osteoarthritis pain model” value in assay [13] (oral dosing) is “limited efficacy”. In addition, the “effect of CB1 antagonist on in vivo efficacy” value in assay [13] is “blocked by CB1 antagonists”; in assay [13] (listed as GW842166) it was “blocked by a CB1 antagonist”. For the same compound, the EC50 in assay [1] is 427 nM; in [4] it was > 10000 nM; in assay [6] it was 235 nM; in [7], 840 nM; in [9] it was > 10000 nM; in assay [10], > 10000 nM. Besides, the “β-arrestin efficacy compared to CP55,940, rat CB2” value in [1] is 97%. For the same compound, the CB1 activity result in assay [14] is reported as “absence of CB1 activity”. Moreover, in assay [2], the “total granule intensity compared to CP55,940, human CB2 receptor internalization” value is listed as 53%. Also, the “receptor internalization, human CB2 (words)” value is given as “weak receptor internalization” in assay [2] and “weak CB2 receptor internalization” in [2] (listed as GW842166). Moreover, the “β-arrestin efficacy, mouse CB2” value in assay [6] is recorded as 108%. Moreover, in assay [7], the “β-arrestin efficacy compared to CP55,940, human CB2” value is given as 99%.
